Earlier results as cited in patent US20090286795A1, “USE OF VASCULAR ENDOTHELIAL GROWTH FACTOR RECEPTOR INHIBITORS FOR THE TREATMENT OF CANCER” (priority 2006, published 2009).

Details: studies in humans

In the case of `Clc1ccc(Nc2nnc(Cc3ccncc3)c3ccccc23)cc1` [PTK787, 1-(4-chloroanilino)-4-(4-pyridylmethyl)phthalazine], the tolerability in humans is listed as “well tolerated” and the tumor vascular permeability is listed as “reduce tumor vascular permeability”.
